Source: patent US8088761B2, “Enzyme inhibitors” (Cancer Research Technology Limited, priority 2005, dated 2012)

How the values were obtained:
[1] = target: T1, Aurora-A (Homo sapiens, UniProt O14965); assay: Flashplate Aurora A enzyme inhibition assay; type: biochemical; details: Flashplate assay; IC50 range; read-out: Aurora-A inhibition
T1 sequence (O14965 1-403): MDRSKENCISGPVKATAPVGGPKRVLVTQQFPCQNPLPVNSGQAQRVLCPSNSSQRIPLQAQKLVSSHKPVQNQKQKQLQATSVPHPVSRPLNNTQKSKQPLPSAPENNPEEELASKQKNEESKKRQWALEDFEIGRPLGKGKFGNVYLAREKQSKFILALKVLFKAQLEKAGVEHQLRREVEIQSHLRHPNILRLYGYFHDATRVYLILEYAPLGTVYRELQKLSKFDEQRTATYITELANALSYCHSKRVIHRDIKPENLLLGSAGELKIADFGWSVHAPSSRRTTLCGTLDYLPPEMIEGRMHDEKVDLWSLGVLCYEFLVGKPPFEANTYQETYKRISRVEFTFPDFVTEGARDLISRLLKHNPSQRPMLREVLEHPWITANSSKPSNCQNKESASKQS
Method in brief: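 This is a radiometric Flashplate format: plates were precoated with DTT, and compound (in 2% DMSO) was mixed with kinase buffer (pH 7.5 Tris, MgCl2, NaCl) containing 1 mM MBP, 20 μM ATP and ^33P-ATP. The reaction was started with 250 ng Aurora-A per well and incubated 2 h at RT. It was then stopped by 10 mM sodium pyrophosphate washing, and plates were scintillation-counted.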

[2] = system: HCT116 cells; assay: Cell viability assay (MTT) in HCT116 cell line; type: cell-based; details: Homo sapiens, HCT-116, 72 hrs, IC50 range, read-out: HCT116 cell growth inhibition
Method in brief: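 MTT read-out (4 hrs, 37 °C, DMSO extraction) following 72 hrs of treatment with 0-50 μM Aurora inhibitor. HCT116 cells were plated a day earlier and tested in triplicate; IC50 derived from the curve.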

Compound	IC50 [1] [nM]	IC50 [2] [nM]
COc1ccc(-c2nc3c(N4CCN(Cc5ccc(Cl)cc5)CC4)c(Cl)cnc3[nH]2)cc1 [Example 37, 6-Chloro-7-(4-(4-chlorobenzyl)piperazin-1-yl)-2-(4-methoxyphenyl)-3H-imidazo[4,5-b]pyridine]	< 500	2000 to 50000
CN(C)c1ccc(-c2nc3c(N4CCCN(Cc5ccc(F)cc5)CC4)c(Br)cnc3[nH]2)cc1 [Example 34, 4-(6-Bromo-7-(4-(4-fluorobenzyl)-1,4-diazepan-1-yl)-3H-imidazo[4,5-b]pyridin-2-yl)-N,N-dimethylaniline]	< 500	2000 to 50000
O=C(CN1CCN(c2c(Cl)cnc3[nH]c(-c4ccc(N5CCC(O)CC5)cc4)nc23)CC1)Nc1nccs1 [Example 184, 2-(4-(6-Chloro-2-(4-(4-hydroxypiperidin-1-yl)phenyl)-3H-imidazo[4,5-b]pyridin-7-yl)piperazin-1-yl)-N-(thiazol-2-yl)acetamide]	< 500	500 to 2000
COc1cccc(-c2nc3c(N4CCN(CC(=O)Nc5nccs5)CC4)c(Br)cnc3[nH]2)c1 [Example 29]	< 500	500 to 2000
COc1ccc(-c2nc3c(N4CCN(Cc5nccn5C)CC4)c(Br)cnc3[nH]2)cc1 [Example 167, 6-Bromo-2-(4-methoxyphenyl)-7-(4-((1-methyl-1H-imidazol-2-yl)methyl)piperazin-1-yl)-3H-imidazo[4,5-b]pyridine]	< 500	500 to 2000
CC(C)(C)OC(=O)NCc1cccc(-c2nc3c(N4CCN(CC(=O)Nc5nccs5)CC4)c(Br)cnc3[nH]2)c1 [Example 11, (3-{6-Bromo-7-[4-(thiazol-2-ylcarbamoylmethyl)-piperazin-1-yl]-3H-imidazo[4,5-b]pyridin-2-yl}-benzyl)-carbamic acid tert-butyl ester]	< 500	500 to 2000
Brc1cnc2[nH]c(-c3ccc(-n4cccn4)cc3)nc2c1N1CCN(Cc2cccnc2)CC1 [Example 108, 2-(4-(1H-pyrazol-1-yl)phenyl)-6-bromo-7-(4-(pyridin-3-ylmethyl)piperazin-1-yl)-3H-imidazo[4,5-b]pyridine]	< 500	500 to 2000
Brc1cnc2[nH]c(-c3cccc(CN4CCOCC4)c3)nc2c1N1CCN(Cc2cccnc2)CC1 [Example 66, 6-Bromo-2-(3-morpholin-4-ylmethyl-phenyl)-7-(4-pyridin-3-ylmethyl-piperazin-1-yl)-3H-imidazo[4,5-b]pyridine]	< 500	< 500
Cc1nc(CN2CCN(c3c(Cl)cnc4[nH]c(-c5ccc(CN6CCNCC6)cc5)nc34)CC2)cs1 [Example 175, 4-((4-(6-Chloro-2-(4-(piperazin-1-ylmethyl)phenyl)-3H-imidazo[4,5-b]pyridin-7-yl)piperazin-1-yl)methyl)-2-methylthiazole]	< 500	< 500
Brc1cnc2[nH]c(-c3ccc(Cn4cccn4)cc3)nc2c1N1CCN(Cc2ccncc2)CC1 [Example 78, 2-(4-((1H-Pyrazol-1-yl)methyl)phenyl)-6-bromo-7-(4-(pyridin-4-ylmethyl)piperazin-1-yl)-3H-imidazo[4,5-b]pyridine]	< 500	< 500
Brc1cnc2[nH]c(-c3ccc(OCCN4CCOCC4)cc3)nc2c1N1CCN(Cc2cccnc2)CC1 [Example 112, 4-(2-(4-(6-Bromo-7-(4-(pyridin-3-ylmethyl)piperazin-1-yl)-3H-imidazo[4,5-b]pyridin-2-yl)phenoxy)ethyl)morpholine]	< 500	500 to 2000
O=S1(=O)CCN(c2ccc(-c3nc4c(N5CCN(Cc6cccnc6)CC5)c(Br)cnc4[nH]3)cc2)CC1 [Example 115, 4-(4-(6-Bromo-7-(4-(pyridin-3-ylmethyl)piperazin-1-yl)-3H-imidazo[4,5-b]pyridin-2-yl)phenyl)-1,1-dioxothiomorpholine]	< 500	500 to 2000
CN(C)CCOc1ccc(-c2nc3c(N4CCN(Cc5cccnc5)CC4)c(Br)cnc3[nH]2)cc1 [Example 111, 2-(4-(6-Bromo-7-(4-(pyridin-3-ylmethyl)piperazin-1-yl)-3H-imidazo[4,5-b]pyridin-2-yl)phenoxy)-N,N-dimethylethanamine]	< 500	< 500
Clc1cnc2[nH]c(-c3ccc(Cn4cccn4)cc3)nc2c1N1CCN(Cc2cccnc2)CC1 [Example 138, 2-(4-((1H-Pyrazol-1-yl)methyl)phenyl)-6-chloro-7-(4-(pyridin-3-ylmethyl)piperazin-1-yl)-3H-imidazo[4,5-b]pyridine]	< 500	500 to 2000
Brc1cnc2[nH]c(-c3ccc(CN4CCOCC4)cc3)nc2c1N1CCN(Cc2cncs2)CC1 [Example 171, 4-(4-(6-Bromo-7-(4-(thiazol-5-ylmethyl)piperazin-1-yl)-3H-imidazo[4,5-b]pyridin-2-yl)benzyl)morpholine]	< 500	500 to 2000
CN(C)c1ccc(-c2nc3c(N4CCN(Cc5ccccn5)CC4)c(Br)cnc3[nH]2)cc1 [Example 30, 4-(6-Bromo-7-(4-(pyridin-2-ylmethyl)piperazin-1-yl)-3H-imidazo[4,5-b]pyridin-2-yl)-N,N-dimethylaniline]	< 500	2000 to 50000
Brc1cnc2[nH]c(-c3ccc(Cn4cccn4)cc3)nc2c1N1CCN(Cc2cccnc2)CC1 [Example 107, 2-(4-((1H-Pyrazol-1-yl)methyl)phenyl)-6-bromo-7-(4-(pyridin-3-ylmethyl)piperazin-1-yl)-3H-imidazo[4,5-b]pyridine]	< 500	500 to 2000
COc1ccc(-c2nc3c(N4CCN(Cc5coc(C(C)C)n5)CC4)c(Br)cnc3[nH]2)cc1 [Example 145, 4-((4-(6-bromo-2-(4-methoxyphenyl)-3H-imidazo[4,5-b]pyridin-7-yl)piperazin-1-yl)methyl)-2-isopropyloxazole]	< 500	< 500
CC(C)(C)OC(=O)N1CCN(Cc2ccc(-c3nc4c(N5CCN(Cc6cncnc6)CC5)c(Cl)cnc4[nH]3)cc2)CC1 [Example 140, tert-Butyl 4-(4-(6-chloro-7-(4-(pyrimidin-5-ylmethyl)piperazin-1-yl)-3H-imidazo[4,5-b]pyridin-2-yl)benzyl)piperazine-1-carboxylate]	< 500	< 500
Cc1cc(CN2CCN(c3c(Cl)cnc4[nH]c(-c5ccc(CN6CCOCC6)cc5)nc34)CC2)no1 [Example 80, 6-Chloro-7-[4-(5-methyl-isoxazol-3-ylmethyl)-piperazin-1-yl]-2-(4-morpholin-4-ylmethyl-phenyl)-3H-imidazo[4,5-b]pyridine]	< 500	500 to 2000
CC(c1ccncc1)N1CCN(c2c(Br)cnc3[nH]c(-c4ccc(OCCN(C)C)cc4)nc23)CC1 (centres unmarked) [Example 131, 2-(4-(6-Bromo-7-(4-(1-(pyridin-4-yl)ethyl)piperazin-1-yl)-3H-imidazo[4,5-b]pyridin-2-yl)phenoxy)-N,N-dimethylethanamine]	< 500	< 500
Fc1ccc(CN2CCN(c3c(Br)cnc4[nH]c(-c5ccc(CN6CCOCC6)cc5)nc34)CC2)cc1 [Example 148, 4-(4-(6-Bromo-7-(4-(4-fluorobenzyl)piperazin-1-yl)-3H-imidazo[4,5-b]pyridin-2-yl)benzyl)morpholine]	< 500	500 to 2000
Brc1cnc2[nH]c(-c3ccc(-n4ccnc4)cc3)nc2c1N1CCN(Cc2cccnc2)CC1 [Example 109, 2-(4-(1H-Imidazol-1-yl)phenyl)-6-bromo-7-(4-(pyridin-3-ylmethyl)piperazin-1-yl)-3H-imidazo[4,5-b]pyridine]	< 500	500 to 2000
Cn1cncc1CN1CCN(c2c(Br)cnc3[nH]c(-c4ccc(Cn5cccn5)cc4)nc23)CC1 [Example 182, 2-(4-((1H-Pyrazol-1-yl)methyl)phenyl)-6-bromo-7-(4-((1-methyl-1H-imidazol-5-yl)methyl)piperazin-1-yl)-3H-imidazo[4,5-b]pyridine]	< 500	500 to 2000
Brc1cnc2[nH]c(-c3ccc(OC4CCNCC4)cc3)nc2c1N1CCN(Cc2cccnc2)CC1 [Example 113, 6-Bromo-2-(4-(piperidin-4-yloxy)phenyl)-7-(4-(pyridin-3-ylmethyl)piperazin-1-yl)-3H-imidazo[4,5-b]pyridine]	< 500	< 500
CC(C)(C)OC(=O)NCc1ccc(-c2nc3c(N4CCC(Oc5ccccc5)CC4)c(Br)cnc3[nH]2)cc1 [Example 134, tert-Butyl 4-(6-bromo-7-(4-phenoxypiperidin-1-yl)-3H-imidazo[4,5-b]pyridin-2-yl)benzylcarbamate]	< 500	< 500
COc1ccc(-c2nc3c(N4CCN(Cc5cncnc5)CC4)c(Cl)cnc3[nH]2)cc1 [Example 139, 6-Chloro-2-(4-methoxyphenyl)-7-(4-(pyrimidin-5-ylmethyl)piperazin-1-yl)-3H-imidazo[4,5-b]pyridine]	< 500	500 to 2000
CN(C)c1ccc(-c2nc3c(N4CCN(C(=O)COc5ccccc5)CC4)c(Br)cnc3[nH]2)cc1 [Example 38, 1-(4-(6-Bromo-2-(4-(dimethylamino)phenyl)-3H-imidazo[4,5-b]pyridin-7-yl)piperazin-1-yl)-2-phenoxyethanone]	< 500	500 to 2000
